For this experiment, the system named is Medicago truncatula αDOX (SEQ ID NO: 9), fatty acid alpha-dioxygenase, A4PRI0, N-terminal His-tag variant SEQ ID NO: 265 (comparative). Briefly: Alpha-dioxygenase activity assay (oxygen consumption, TON). Type of experiment: biochemical. Conditions: fatty acid 100 µM, enzyme 6 ppm, 50 mM HEPES pH 9.0, 37°C; initial rate of oxygen consumption / enzyme concentration. From the text:
Medicago truncatula αDOX (SEQ ID NO: 9) is a fatty acid alpha-dioxygenase that converts fatty acids into the corresponding 2-hydroperoxy fatty acids and is included as a comparative example of the present invention. A codon optimized gene (SEQ ID NO: 264) encoding for an alpha-dioxygenase variant (SEQ ID NO: 265), including an N-terminal amino acid sequence containing a His-tag was designed and synthesized by Genscript. After gene synthesis, the protein was expressed and purified. In brief, the complete synthetic gene sequence was subcloned into a pET30a vector using the NdeI/HindIII cloning sites. For heterologous expression, Escherichia coli BL21 (DE3) cells were transformed with the recombinant plasmid and a single colony was inoculated into LB medium containing kanamycin (50 mg/L). A pre-starter culture was then inoculated into flasks containing Magic Media (Thermo Fisher, Catalog # K6803) supplemented with kanamycin (50 mg/L) and incubated at 16 °C for 72 h. At an OD600nm = 0.5 - 1.0, 5-aminolevulinic acid (final concentration 0.5 mM) was added. Cells were harvested by centrifugation at 5000 rpm and 4°C and the pellet was lysed using a bacterial cell lysis buffer (B-PER - Themo Fisher, Waltham, MA). After centrifugation, the supernatant was collected, and the protein was purified by one-step purification using HisPur™ Ni-NTA Spin Columns (Thermo Scientific, Catalog # 88226) and standard protocols known in the art. The protein was concentrated using a 10 kDa MW cutoff Amicon Ultra centrifugal filter unit (Millipore Sigma, Catalog# UFC901024), followed by desalting using a disposable PD-10 desalting column (GE Healthcare Life Sciences, Catalog# 17085101) and a buffer containing 50 mM Tris-HCl, 500 mM NaCl, and 10% Glycerol at pH 8.0. […]
Reactions with alpha-dioxygenases were performed as follows. […] The reaction was incubated for up to 10 minutes at 37°C with 200 rpm agitation and the conversion was monitored using an oxygen sensor. The TON (in s-1) were calculated as the ratio between the initial rate of oxygen consumption (in µM/s) and the concentration of enzyme (in µM). […]

For the molecule `CCCCCCCCCCCCCCCCCC(=O)O` [Stearic Acid], the “Stearic Acid, TON” value is 0.02 s⁻¹. As to `CCCCCCCC/C=C\CCCCCCCC(=O)O` [Oleic Acid], the “Oleic Acid, TON” value came out at 0.06 s⁻¹.

`CCCCCCCCCCCCCCCC(=O)O` [Palmitic Acid]: the “Palmitic Acid, TON” value amounted to 0.57 s⁻¹.

The record behind these values is patent EP3981864A1, “DETERGENT COMPOSITION” (priority 2020, dated 2022).
